Key:
[1] = tested on: lambsquarters; assay: Test B preemergence/postemergence greenhouse plant response rating 0 to 10; format: in vivo, Chenopodium album; conditions: for Plant response rating, Lambsquarter: 0 to 10 scale
In short: (§1)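 Postemergence treatment of plants two to eighteen cm tall ran alongside preemergence treatment of planted seed, each using compound in a non-phytotoxic solvent.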

[2] = tested on: wild buckwheat; assay: Test C preemergence/postemergence greenhouse plant response rating 0 to 100; format: in vivo, Polygonum convolvulus; conditions: for Plant response rating, Wild buckwheat: 0 to 100 scale
In short: (§2)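 Compounds in non-phytotoxic solvent applied preemergence to sandy loam one day after planting, postemergence at the 1–4 leaf stage, or to ~2.5 cm floodwater over silt loam.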

[3] = tested on: wheat; assay: Test B preemergence/postemergence greenhouse plant response rating 0 to 10; format: in vivo, Triticum aestivum; conditions: for Plant response rating, Wheat: 0 to 10 scale
In short: as §1

[4] = tested on: barnyardgrass; assay: Test C flood test plant response rating 0 to 100; format: in vivo, Echinochloa crus-galli; conditions: for Plant response rating Barnyardgrass 2: flood test species listed under POSTEMERGENCE, 0 to 100 scale
In short: as §2

[5] = tested on: soybean; assay: Test B preemergence/postemergence greenhouse plant response rating 0 to 10; format: in vivo, Glycine max; conditions: for Plant response rating, Soybean: 0 to 10 scale
In short: as §1

[6] = tested on: rice; assay: as above; format: in vivo, Oryza sativa; conditions: for Plant response rating, Rice: 0 to 10 scale
In short: as §1

[7] = tested on: blackgrass; assay: Test C preemergence/postemergence greenhouse plant response rating 0 to 100; format: in vivo, Alopecurus myosuroides; conditions: for Plant response rating, Blackgrass: 0 to 100 scale
In short: as §2

[8] = tested on: sorghum; assay: as above; format: in vivo, Sorghum bicolor; conditions: for Plant response rating, Sorghum: 0 to 100 scale
In short: as §2

[9] = tested on: downy brome; assay: as above; format: in vivo, Bromus tectorum; conditions: for Plant response rating Downy Brome: 0 to 100 scale
In short: as §2

[10] = tested on: wild oat; assay: Test B preemergence/postemergence greenhouse plant response rating 0 to 10; format: in vivo, Avena fatua; conditions: for Plant response rating, Wild oat: 0 to 10 scale
In short: as §1

[11] = tested on: wild buckwheat; assay: as above; format: in vivo, Polygonum convolvulus; conditions: for Plant response rating, Wild buckwheat: 0 to 10 scale
In short: as §1

[12] = tested on: sugar beet; assay: Test C preemergence/postemergence greenhouse plant response rating 0 to 100; format: in vivo, Beta vulgaris; conditions: for Plant response rating, Sugar beet: 0 to 100 scale
In short: as §2

[13] = POSTEMERGENCE section, flood test, Rate 4 g/ha
[14] = Rate 16 g/ha, under POSTEMERGENCE head (flood test species)

C#CC(C)Oc1cc(-c2nn3c(c2Br)CCCC3)c(F)cc1Cl (stereo not shown) [Compound 66]
Plant response rating, Lambsquarter ([1]; POSTEMERGENCE, Rate 50 g/ha): 10
Plant response rating, Lambsquarter ([1]; PREEMERGENCE, Rate 50 g/ha): 9
Plant response rating (0 to 10 scale), Lambsquarter ([1]; PREEMERGENCE, Rate 200 g/ha): 10
Plant response rating, Lambsquarter ([1]; Rate 200 g/ha, POSTEMERGENCE): 10
Plant response rating, Wild buckwheat ([2]; POSTEMERGENCE, 62 g/ha): 100
Plant response rating, Wild buckwheat ([2]; POSTEMERGENCE, 250 g/ha): 100
Plant response rating (0 to 100), Wild buckwheat ([2]; POSTEMERGENCE, Rate 4 g/ha): 100
Plant response rating, Wild buckwheat ([2]; PREEMERGENCE, 250 g/ha): 100
Plant response rating (0 to 100), Wild buckwheat ([2]; PREEMERGENCE, Rate 4 g/ha): 0
Plant response rating (0 to 100), Wild buckwheat ([2]; Rate 16 g/ha, POSTEMERGENCE): 100
Plant response rating (0 to 100), Wild buckwheat ([2]; Rate 16 g/ha, PREEMERGENCE): 75
Plant response rating, Wheat ([3]; POSTEMERGENCE, Rate 50 g/ha): 5
Plant response rating, Wheat ([3]; PREEMERGENCE, Rate 50 g/ha): 0
Plant response rating (0 to 10 scale), Wheat ([3]; PREEMERGENCE, Rate 200 g/ha): 3
Plant response rating, Wheat ([3]; Rate 200 g/ha, POSTEMERGENCE): 5
Plant response rating (0 to 100), Barnyardgrass 2 [4, 13]: 10
Plant response rating (0 to 100), Barnyardgrass 2 [4, 14]: 90
Plant response rating Barnyardgrass 2 ([4]; 62 g/ha): 100
Plant response rating Barnyardgrass 2 ([4]; 250 g/ha): 100
Plant response rating, Soybean ([5]; POSTEMERGENCE, Rate 50 g/ha): 6
Plant response rating, Soybean ([5]; PREEMERGENCE, Rate 50 g/ha): 0
Plant response rating (0 to 10 scale), Soybean ([5]; PREEMERGENCE, Rate 200 g/ha): 0
Plant response rating, Soybean ([5]; Rate 200 g/ha, POSTEMERGENCE): 8
Plant response rating, Rice ([6]; POSTEMERGENCE, Rate 50 g/ha): 5
Plant response rating, Rice ([6]; PREEMERGENCE, Rate 50 g/ha): 0
Plant response rating (0 to 10 scale), Rice ([6]; PREEMERGENCE, Rate 200 g/ha): 0
Plant response rating, Rice ([6]; Rate 200 g/ha, POSTEMERGENCE): 6
Plant response rating, Blackgrass ([7]; POSTEMERGENCE, 62 g/ha): 60
Plant response rating, Blackgrass ([7]; POSTEMERGENCE, 250 g/ha): 80
Plant response rating (0 to 100), Blackgrass ([7]; POSTEMERGENCE, Rate 4 g/ha): 20
Plant response rating, Blackgrass ([7]; PREEMERGENCE, 62 g/ha): 70
Plant response rating, Blackgrass ([7]; PREEMERGENCE, 250 g/ha): 70
Plant response rating (0 to 100), Blackgrass ([7]; PREEMERGENCE, Rate 4 g/ha): 0
Plant response rating (0 to 100), Blackgrass ([7]; Rate 16 g/ha, POSTEMERGENCE): 40
Plant response rating (0 to 100), Blackgrass ([7]; Rate 16 g/ha, PREEMERGENCE): 20
Plant response rating, Sorghum ([8]; POSTEMERGENCE, 62 g/ha): 50
Plant response rating, Sorghum ([8]; POSTEMERGENCE, 250 g/ha): 60
Plant response rating (0 to 100), Sorghum ([8]; POSTEMERGENCE, Rate 4 g/ha): 30
Plant response rating, Sorghum ([8]; PREEMERGENCE, 250 g/ha): 30
Plant response rating (0 to 100), Sorghum ([8]; PREEMERGENCE, Rate 4 g/ha): 0
Plant response rating (0 to 100), Sorghum ([8]; Rate 16 g/ha, POSTEMERGENCE): 40
Plant response rating (0 to 100), Sorghum ([8]; Rate 16 g/ha, PREEMERGENCE): 0
Plant response rating Downy Brome ([9]; POSTEMERGENCE, 62 g/ha): 60
Plant response rating Downy Brome ([9]; POSTEMERGENCE, 250 g/ha): 80
Plant response rating (0 to 100), Downy Brome ([9]; POSTEMERGENCE, Rate 4 g/ha): 20
Plant response rating Downy Brome ([9]; PREEMERGENCE, 62 g/ha): 30
Plant response rating Downy Brome ([9]; PREEMERGENCE, 250 g/ha): 70
Plant response rating (0 to 100), Downy Brome ([9]; PREEMERGENCE, Rate 4 g/ha): 0
Plant response rating (0 to 100), Downy Brome ([9]; Rate 16 g/ha, POSTEMERGENCE): 40
Plant response rating (0 to 100), Downy Brome ([9]; Rate 16 g/ha, PREEMERGENCE): 0
Plant response rating, Wild oat ([10]; POSTEMERGENCE, Rate 50 g/ha): 5
Plant response rating, Wild oat ([10]; PREEMERGENCE, Rate 50 g/ha): 2
Plant response rating (0 to 10 scale), Wild oat ([10]; PREEMERGENCE, Rate 200 g/ha): 5
Plant response rating, Wild oat ([10]; Rate 200 g/ha, POSTEMERGENCE): 6
Plant response rating, Wild buckwheat ([11]; POSTEMERGENCE, Rate 50 g/ha): 10
Plant response rating, Wild buckwheat ([11]; PREEMERGENCE, Rate 50 g/ha): 4
Plant response rating (0 to 10 scale), Wild buckwheat ([11]; PREEMERGENCE, Rate 200 g/ha): 10
Plant response rating, Wild buckwheat ([11]; Rate 200 g/ha, POSTEMERGENCE): 10
Plant response rating, Sugar beet ([12]; POSTEMERGENCE, 62 g/ha): 100
Plant response rating, Sugar beet ([12]; POSTEMERGENCE, 250 g/ha): 100
Plant response rating (0 to 100), Sugar beet ([12]; POSTEMERGENCE, Rate 4 g/ha): 80
Plant response rating, Sugar beet ([12]; PREEMERGENCE, 250 g/ha): 100
Plant response rating (0 to 100), Sugar beet ([12]; PREEMERGENCE, Rate 4 g/ha): 0
Plant response rating (0 to 100), Sugar beet ([12]; Rate 16 g/ha, POSTEMERGENCE): 100
Plant response rating (0 to 100), Sugar beet ([12]; Rate 16 g/ha, PREEMERGENCE): 50

COCN1C(=O)COc2cc(F)c(-c3nn4c(c3Br)CCCC4)cc21 [Compound 67]
Plant response rating, Lambsquarter ([1]; POSTEMERGENCE, Rate 10 g/ha): 9
Plant response rating, Lambsquarter ([1]; POSTEMERGENCE, Rate 50 g/ha): 10
Plant response rating, Lambsquarter ([1]; PREEMERGENCE, Rate 50 g/ha): 10
Plant response rating, Wild buckwheat ([2]; POSTEMERGENCE, 62 g/ha): 100
Plant response rating (0 to 100), Wild buckwheat ([2]; POSTEMERGENCE, Rate 4 g/ha): 70
Plant response rating (0 to 100), Wild buckwheat ([2]; Rate 16 g/ha, POSTEMERGENCE): 100
Plant response rating, Wheat ([3]; POSTEMERGENCE, Rate 10 g/ha): 5
Plant response rating, Wheat ([3]; POSTEMERGENCE, Rate 50 g/ha): 6
Plant response rating, Wheat ([3]; PREEMERGENCE, Rate 50 g/ha): 0
Plant response rating (0 to 100), Barnyardgrass 2 ([4]; POSTEMERGENCE section, flood test, Rate 1 g/ha): 0
Plant response rating (0 to 100), Barnyardgrass 2 [4, 13]: 20
Plant response rating (0 to 100), Barnyardgrass 2 [4, 14]: 90
Plant response rating Barnyardgrass 2 ([4]; 62 g/ha): 95
Plant response rating, Soybean ([5]; POSTEMERGENCE, Rate 10 g/ha): 8
Plant response rating, Soybean ([5]; POSTEMERGENCE, Rate 50 g/ha): 9
Plant response rating, Soybean ([5]; PREEMERGENCE, Rate 50 g/ha): 0
Plant response rating, Rice ([6]; POSTEMERGENCE, Rate 10 g/ha): 6
Plant response rating, Rice ([6]; POSTEMERGENCE, Rate 50 g/ha): 7
Plant response rating, Rice ([6]; PREEMERGENCE, Rate 50 g/ha): 0
Plant response rating, Blackgrass ([7]; POSTEMERGENCE, 62 g/ha): 60
Plant response rating (0 to 100), Blackgrass ([7]; POSTEMERGENCE, Rate 1 g/ha): 30
Plant response rating (0 to 100), Blackgrass ([7]; POSTEMERGENCE, Rate 4 g/ha): 40
Plant response rating (0 to 100), Blackgrass ([7]; Rate 16 g/ha, POSTEMERGENCE): 50
Plant response rating, Sorghum ([8]; POSTEMERGENCE, 62 g/ha): 60
Plant response rating (0 to 100), Sorghum ([8]; POSTEMERGENCE, Rate 1 g/ha): 20
Plant response rating (0 to 100), Sorghum ([8]; POSTEMERGENCE, Rate 4 g/ha): 30
Plant response rating (0 to 100), Sorghum ([8]; Rate 16 g/ha, POSTEMERGENCE): 40
Plant response rating Downy Brome ([9]; POSTEMERGENCE, 62 g/ha): 60
Plant response rating (0 to 100), Downy Brome ([9]; POSTEMERGENCE, Rate 1 g/ha): 20
Plant response rating (0 to 100), Downy Brome ([9]; POSTEMERGENCE, Rate 4 g/ha): 50
Plant response rating (0 to 100), Downy Brome ([9]; Rate 16 g/ha, POSTEMERGENCE): 60
Plant response rating, Wild oat ([10]; POSTEMERGENCE, Rate 10 g/ha): 6
Plant response rating, Wild oat ([10]; POSTEMERGENCE, Rate 50 g/ha): 7
Plant response rating, Wild oat ([10]; PREEMERGENCE, Rate 50 g/ha): 5
Plant response rating, Wild buckwheat ([11]; POSTEMERGENCE, Rate 10 g/ha): 10
Plant response rating, Wild buckwheat ([11]; POSTEMERGENCE, Rate 50 g/ha): 10
Plant response rating, Wild buckwheat ([11]; PREEMERGENCE, Rate 50 g/ha): 10
Plant response rating, Sugar beet ([12]; POSTEMERGENCE, 62 g/ha): 100
Plant response rating (0 to 100), Sugar beet ([12]; POSTEMERGENCE, Rate 1 g/ha): 100
Plant response rating (0 to 100), Sugar beet ([12]; POSTEMERGENCE, Rate 4 g/ha): 100
Plant response rating (0 to 100), Sugar beet ([12]; Rate 16 g/ha, POSTEMERGENCE): 100
